The results in this text go back to PMC11278233, “The Composition of Triterpene Glycosides in the Sea Cucumber Psolus peronii: Anticancer Activity of the Glycosides against Three Human Breast Cancer Cell Lines and Quantitative Structure–Activity Relationships (QSAR)” (Marine Drugs, 2024).

Broadly, the IC50 is the concentration at which inhibition is half-maximal.

One data set relates to human erythrocytes. The data set can be described thus: Hemolytic activity. In kind it is cell-based. The note with it: for IC50: Erythrocyte, 1 h at 37 °C, lysis of 50% of erythrocytes. The procedure: A total of 450 g of human blood (B(III) Rh+) was used to obtain erythrocytes by centrifuging it three times for 5 min with phosphate-buffered saline (PBS) (pH 7.4) at 4 °C on the centrifuge LABOFUGE 400R (Heraeus, Hanau, Germany). Ice-cold PBS (pH 7.4) was used for resuspension of the erythrocyte residue to a final optical density of 1.5 at 700 nm, which was kept on ice. Then, 20 µL of the tested compound solutions was added to 180 µL of the erythrocyte suspension in V-bottom 96-well plates and exposed for 1 h at 37 °C. The layers were separated by centrifugation at 900 g for 10 min on the laboratory centrifuge LMC-3000 (Biosan, Riga, Latvia). A total of 100 µL of the supernatant was carefully decanted and transferred into a new flat plate. The values of erythrocyte lysis were measured on a microplate photometer Multiskan FC (Thermo Fisher Scientific, Waltham, MA, USA) at λ = 570 nm as the hemoglobin concentration in the supernatant. […] All the experiments were carried out in triple repetitions; p ≤ 0.05.

A short description of another data set: in vitro. The data set is classed as cell-based, human. The note with it: human.
In data set [1] the test system is human breast cancer cell line MCF-7. The data set can be described thus: cells. The data set is classed as cell-based.
Data set [2] has as its system human breast cancer cell line T-47D. The data set can be described thus: cells. In kind it is cell-based.
For data set [3], the system named is triple-negative human breast cancer cell line MDA-MB-231. In words: cells. In kind it is cell-based.
In data set [4] the test system is non-transformed epithelial cells of the mammary gland MCF-10A. In words: in vitro. The data set is classed as cell-based, human.
The mark [5] stands for this setting: Homo sapiens, MCF7, 24 h, read-out: Cytotoxicity, IC50 µM MCF-7.
[6] abbreviates: Homo sapiens, T47D, 24 h, read-out: Cytotoxicity, IC50 µM T-47D.
[7] abbreviates: Homo sapiens, MDA-MB-231, 24 h, read-out: Cytotoxicity, IC50 µM MDA-MD-231.

Molecules are shown by their SMILES. Where two headings read alike, the source gives them in different places.

On to `C=C(C)CCC[C@]1(C)OC(=O)[C@]23CC[C@@H]4C(=CC[C@H]5C(C)(C)[C@@H](O[C@@H]6OC[C@@H](O[C@@H]7O[C@H](CO)[C@@H](O)[C@H](O)[C@H]7OS(=O)(=O)[O-])[C@H](O)[C@H]6O[C@@H]6O[C@H](CO)[C@@H](O[C@@H]7O[C@H](COS(=O)(=O)[O-])[C@@H](O)[C@H](O)[C@H]7O)[C@H](O)[C@H]6O)CC[C@]45C)[C@]2(C)CC(=O)[C@@H]31.[Na+].[Na+]` [peronioside A (1), 3β-O-{6-O-sodium-sulfate-β-D-glucopyranosyl-(1→4)-β-D-glucopyranosyl-(1→2)-[2-O-sodium-sulfate-β-D-glucopyranosyl-(1→4)]-β-D-xylopyranosyl}-16-oxoholosta-7,25-diene], for which the “hemolytic activity (result in words)” value with human erythrocytes is recorded as “moderate hemolytic activity”. Moreover, the IC50 in the data set on human erythrocytes was 30.8 ± 1.01 µM; in data set [1] (setting [5]), more than 50 µM; in data set [2] (setting [6]) it was more than 50 µM; in data set [3] (setting [7]), more than 50 µM. The IC50 at 24 h in the data set “in vitro” is more than 50 µM.
In the case of `C=C(C)CCC[C@](C)(OC(C)=O)[C@H]1[C@@H]2C[C@@]3(C)C4=CC[C@H]5C(C)(C)[C@@H](O[C@@H]6OC[C@@H](O[C@@H]7O[C@H](CO)[C@@H](O)[C@H](O)[C@H]7OS(=O)(=O)[O-])[C@H](O)[C@H]6O[C@@H]6O[C@H](CO)[C@@H](O[C@@H]7O[C@H](COS(=O)(=O)[O-])[C@@H](O)[C@H](O)[C@H]7O)[C@H](O)[C@H]6O)CC[C@]5(C)C4CC[C@]13C(=O)O2.[Na+].[Na+]` (stereo partly drawn) [psolusoside B (3), psolusoside B], the “hemolytic activity (result in words)” value with human erythrocytes is “almost not active”. Further, the IC50 in the data set on human erythrocytes is 74.6 ± 1.21 µM; in data set [1] (setting [5]) it was more than 50 µM; in data set [2] (setting [6]), more than 50 µM; in data set [3] (setting [7]), more than 50 µM. This molecule had an IC50 at 24 h in the data set “in vitro” of more than 50 µM.
As to `C=C(C)CCC[C@]1(C)OC(=O)[C@]23CC=C4[C@@H](CC[C@H]5C(C)(C)[C@@H](O[C@@H]6OC[C@@H](O[C@@H]7O[C@H](COS(=O)(=O)O)[C@@H](OS(=O)(=O)O)[C@H](O)[C@H]7O)[C@H](O)[C@H]6O[C@@H]6O[C@H](C)[C@@H](O[C@@H]7O[C@H](COS(=O)(=O)O)[C@@H](O)[C@H](O[C@@H]8O[C@H](COS(=O)(=O)O)[C@@H](O)[C@H](OC)[C@H]8O)[C@H]7O)[C@H](O)[C@H]6O)CC[C@]45C)[C@]2(C)CC(=O)[C@@H]31` [psolusoside P (8), psolusoside P], the IC50 is more than 50 µM in data set [4], more than 50 µM in data set [1], 37.1 ± 0.83 µM in data set [2] and 33.3 ± 1.31 µM in data set [3].
Consider `C=C(C)CCC[C@]1(C)OC(=O)[C@]23CC=C4[C@@H](CC[C@H]5C(C)(C)[C@@H](O[C@@H]6OC[C@@H](O[C@@H]7O[C@H](COS(=O)(=O)O)[C@@H](O)[C@H](O)[C@H]7O)[C@H](O)[C@H]6O[C@@H]6O[C@H](CO)[C@@H](O[C@@H]7O[C@H](COS(=O)(=O)O)[C@@H](O)[C@H](O[C@@H]8O[C@H](COS(=O)(=O)O)[C@@H](O)[C@H](OC)[C@H]8O)[C@H]7O)[C@H](O)[C@H]6O)CC[C@]45C)[C@]2(C)CC(=O)[C@@H]31` [psolusoside N (7), psolusoside N], for which the IC50 was more than 50 µM in data set [4], more than 50 µM in data set [1], more than 50 µM in data set [2] and 39.3 ± 2.89 µM in data set [3].
`C=C(C)CCC[C@]1(C)OC(=O)[C@]23CC=C4[C@@H](CC[C@H]5C(C)(C)[C@@H](O[C@@H]6OC[C@@H](O)[C@H](O)[C@H]6O[C@@H]6O[C@H](CO)[C@@H](O[C@@H]7O[C@H](COS(=O)(=O)O)[C@@H](O)[C@H](O[C@@H]8O[C@H](COS(=O)(=O)O)[C@@H](O)[C@H](OC)[C@H]8O)[C@H]7O)[C@H](O)[C@H]6O)CC[C@]45C)[C@]2(C)CC(=O)[C@@H]31` [psolusoside G (4), psolusoside G]: the IC50 in the data set with human erythrocytes amounted to 2.7 ± 0.09 µM; in data set [1] (setting [5]), 11.4 ± 0.36 µM; in data set [2] (setting [6]) it was 16 ± 1.17 µM; in data set [3] (setting [7]), 11 ± 0.36 µM. In the data set “in vitro”, the IC50 at 24 h is more than 50 µM.
In the same order, the values of `C=C(C)CCC[C@]1(C)OC(=O)[C@]23CCC4C(=CC[C@H]5C(C)(C)[C@@H](O[C@@H]6OC[C@@H](O[C@@H]7O[C@H](COS(=O)(=O)O)[C@@H](O)[C@H](O)[C@H]7O)[C@H](O)[C@H]6O[C@@H]6OC[C@@H](O[C@@H]7O[C@H](COS(=O)(=O)O)[C@@H](O)[C@H](O)[C@H]7O)[C@H](O)[C@H]6O)CC[C@]45C)[C@]2(C)C[C@H](OC(C)=O)[C@@H]31` (stereo partly drawn) [psolusoside I (5), psolusoside I] are 8.49 ± 0.49 µM, more than 50 µM, 19.6 ± 0.61 µM, 33.1 ± 0.85 µM and more than 50 µM.
